These are literature values, as cited in patent publication US20050244821A1, “Method of identification and quantification of biological molecules and apparatus therefore” (priority 2000, published 2005).

In this data set the target is D2.3 antibody. As to conditions: hapten and antibody free in solution; competitive ELISA, further by a fluorescence assay; read-out: affinity constant. For orientation: An ELISA detects its analyte on a solid surface through an enzyme-linked reagent.

Turning to “p-nitrobenzyl phosphonate N-glycylglutatarate [hapten 23.7]”, the Kd was 4 nM.
